The supplement of paper PMC10307832

How the values were obtained:
Assay in all cases: relative viability (nuclei count vs DMSO), 5 days (fraction); higher = more cells survive
Venetoclax + Palbociclib = compound: CC1(C)CCC(CN2CCN(c3ccc(C(=O)NS(=O)(=O)c4ccc(NCC5CCOCC5)c([N+](=O)[O-])c4)c(Oc4cnc5[nH]ccc5c4)c3)CC2)=C(c2ccc(Cl)cc2)C1 [Venetoclax] + CC(=O)c1c(C)c2cnc(Nc3ccc(N4CCNCC4)cn3)nc2n(C2CCCC2)c1=O [Palbociclib] (partner 0.5 µM)
Outline: (§1)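 Relative viability was taken as the ratio of nuclei in treated wells to nuclei in vehicle wells. Lung cancer cell lines in 1536-well plates received compounds by pin tool one day after seeding, either one drug alone or a fixed anchor-drug dose plus five library-drug doses (not always all listed) in √10 steps. Nuclei were counted on 4× images after 5 days of treatment, and values are medians of duplicate plates.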

Venetoclax + Decitabine = compound: CC1(C)CCC(CN2CCN(c3ccc(C(=O)NS(=O)(=O)c4ccc(NCC5CCOCC5)c([N+](=O)[O-])c4)c(Oc4cnc5[nH]ccc5c4)c3)CC2)=C(c2ccc(Cl)cc2)C1 [Venetoclax] + Nc1ncn([C@H]2C[C@H](O)[C@@H](CO)O2)c(=O)n1 [Decitabine] (partner 2 µM)
Outline: as §1

Selumetinib + Alpelisib = compound: Cn1cnc2c(F)c(Nc3ccc(Br)cc3Cl)c(C(=O)NOCCO)cc21 [Selumetinib] + Cc1nc(NC(=O)N2CCC[C@H]2C(N)=O)sc1-c1ccnc(C(C)(C)C(F)(F)F)c1 [Alpelisib] (partner 2 µM)
Outline: as §1

Venetoclax + Dasatinib = compound: CC1(C)CCC(CN2CCN(c3ccc(C(=O)NS(=O)(=O)c4ccc(NCC5CCOCC5)c([N+](=O)[O-])c4)c(Oc4cnc5[nH]ccc5c4)c3)CC2)=C(c2ccc(Cl)cc2)C1 [Venetoclax] + Cc1nc(Nc2ncc(C(=O)Nc3c(C)cccc3Cl)s2)cc(N2CCN(CCO)CC2)n1 [Dasatinib] (partner 0.075 µM)
Outline: as §1

UMC-11 showed a relative viability (Venetoclax + Palbociclib; first compound 0.01 µM) of 0.37, a relative viability (Venetoclax + Palbociclib; first compound 0.03162 µM) of 0.334 and a relative viability (Venetoclax + Palbociclib; first compound 0.1 µM) of 0.277. It also gave a relative viability (Venetoclax + Palbociclib; first compound 0.3162 µM) of 0.304, a relative viability (Venetoclax + Palbociclib; first compound 1 µM) of 0.324 and a relative viability (Venetoclax + Decitabine; first compound 0.01 µM) of 0.705. For the same cell line, the relative viability (Venetoclax + Decitabine; first compound 0.03162 µM) was 0.595, the relative viability (Venetoclax + Decitabine; first compound 0.1 µM) was 0.48 and the relative viability (Venetoclax + Decitabine; first compound 0.3162 µM) was 0.686. It also gave a relative viability (Venetoclax + Decitabine; first compound 1 µM) of 0.608, a relative viability (Selumetinib + Alpelisib; first compound 0.02 µM) of 0.97 and a relative viability (Selumetinib + Alpelisib; first compound 0.06325 µM) of 1.1. For the same cell line, the relative viability (Selumetinib + Alpelisib; first compound 0.2 µM) was 1.01, the relative viability (Selumetinib + Alpelisib; first compound 0.6325 µM) was 0.986 and the relative viability (Venetoclax + Dasatinib; first compound 0.01 µM) was 0.45. The relative viability (Venetoclax + Dasatinib; first compound 0.03162 µM) was 0.518, the relative viability (Venetoclax + Dasatinib; first compound 0.1 µM) was 0.463 and the relative viability (Venetoclax + Dasatinib; first compound 0.3162 µM) was 0.505. For the same cell line, the relative viability (Venetoclax + Dasatinib; first compound 1 µM) was 0.491.
